“Also recorded” adds a separate entry of the source. Like-named read-outs stand apart in the source and are kept apart here. Peptide text beside a SMILES is read from it.
How the values were obtained:
Vero cells = assay: Cytotoxicity assay in Vero cells (EZ4U); type: cell-based, African green monkey; settings: 48 h, without virus, 20 and 40 µg/mL, DMEM/2% FCS, 3 experiments, 80% viability cut-off
Description: Vero cells were seeded into 96-well flat-bottom plates (1×10^4 cells, 80 µl/well) in DMEM medium supplemented with 10% FCS, antibiotics, and non-essential amino acids. On the day of the assay, the medium was exchanged for the reduced serum supplemented DMEM (DMEM/2% FCS) with the peptides or a vehicle only at the designated concentration (100 µl/well). As a positive control, 30% DMSO in DMEM/2% FCS was used. Negative control cells were incubated in DMEM/2% FCS only. Two days (48 h) later, cell viability was assessed as we did previously ([52]) using the EZ4U cell proliferation and cytotoxicity assay substrate (Biomedica Immunoassays, Vienna, Austria).

plasmin = target: T1, plasmin (Homo sapiens, UniProt P00747); assay: In vitro proteolysis assay, plasmin; type: biochemical; settings: 37°C; for inhibition of proteolytic activity of plasmin (in words): plasmin 10 nM, Tris-HCl buffer, Boc-Gln-Ala-Arg-AMC
T1 construct: purchased Roche Diagnostics GmbH, Mannheim, Germany #10602361001; host or cells: human plasma
T1 sequence (P00747 581-810 limits assumed): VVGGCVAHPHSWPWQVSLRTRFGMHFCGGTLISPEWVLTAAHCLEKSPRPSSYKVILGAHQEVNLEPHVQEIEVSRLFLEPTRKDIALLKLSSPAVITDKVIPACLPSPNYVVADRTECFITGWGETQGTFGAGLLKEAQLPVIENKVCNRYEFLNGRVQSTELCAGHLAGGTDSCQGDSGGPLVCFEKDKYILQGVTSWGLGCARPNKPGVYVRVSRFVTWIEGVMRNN
T1 sequence (P00747 97-580 limits assumed): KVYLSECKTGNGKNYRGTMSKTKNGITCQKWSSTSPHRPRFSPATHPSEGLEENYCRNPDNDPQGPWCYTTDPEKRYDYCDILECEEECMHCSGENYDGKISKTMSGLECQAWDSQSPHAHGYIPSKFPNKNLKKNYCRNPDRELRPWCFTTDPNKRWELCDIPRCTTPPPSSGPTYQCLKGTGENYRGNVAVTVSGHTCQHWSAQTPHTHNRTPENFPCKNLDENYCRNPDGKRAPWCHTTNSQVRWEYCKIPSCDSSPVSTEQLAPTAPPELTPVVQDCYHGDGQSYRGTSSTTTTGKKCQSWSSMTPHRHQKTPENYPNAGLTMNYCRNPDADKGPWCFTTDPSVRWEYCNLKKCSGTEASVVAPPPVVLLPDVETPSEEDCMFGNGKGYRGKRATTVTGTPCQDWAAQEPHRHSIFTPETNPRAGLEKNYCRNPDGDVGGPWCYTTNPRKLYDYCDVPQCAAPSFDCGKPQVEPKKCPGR
Description: (§1) Figure 1 Effect of LF and the LF-derived peptides pLF1-pLF3 on the activity of serine proteases. Proteolytic activities of purified TMPRSS2 (A), plasmin (B), elastase (C), and trypsin (D) were measured with or without peptides pLF1, pLF2, pLF3, LF or the control peptide pCTR at 37°C in Tris-HCl buffer using the fluorogenic substrate Boc-Gln-Ala-Arg-AMC. The reaction was monitored using an ELISA reader for the indicated time intervals.
(§2) The proteolytic activities of plasmin (10 nM; from human plasma; #10602361001, Roche Diagnostics GmbH, Mannheim, Germany), trypsin (10 nM; from bovine pancreas; #T1005, Sigma-Aldrich, St. Louis, MO), elastase (20 nM; from porcine pancreas; #E1250, Sigma-Aldrich) and TMPRSS2 (25 nM; recombinant protein produced in mammalian cells; #MBS1193731, MyBioSource, San Diego, CA) were measured in a Nunc black fluorescence-based cell assay plate (Sigma-Aldrich) in Tris-HCl buffer (20 mM, pH 8.0, 150 mM NaCl). The proteases were incubated with or without inhibitory and control compounds at 37°C for 30 min, and then the fluorogenic substrate (Boc-Gln-Ala-Arg-AMC; 25 µM; #BML-P237, ENZO Life Sciences, Lörrach, Germany) was added. The reaction was measured using an ELISA plate reader (Synergy H1 BioTek microplate reader, Winooski, Vermont, U.S., or TECAN GENios, GMI, USA) under the excitation wavelength of 380 nm and the emission wavelength of 460 nm at the indicated time points.
Optionally ( Figure 1B , inset), purified active plasmin (10 mU/mL) was coated in PBS directly on a 96-well Falcon transparent plate for 2 h at 37°C. The wells were then blocked with 1% BSA, washed, and then incubated in PBS at 37°C with the chromogenic plasmin substrate S-2251 (0.8 mM, D-Val-Leu-Lys-pNA, CoaChrom Diagnostica). In this case, the absorbance change at 405 nm was monitored at different time points by using an ELISA plate reader (SpectraMax M5, Molecular Devices).

TMPRSS2 = target: T2, TMPRSS2 (Homo sapiens, UniProt O15393); assay: In vitro proteolysis assay, TMPRSS2, fluorogenic substrate Boc-Gln-Ala-Arg-AMC; type: biochemical; settings: 37°C, Boc-Gln-Ala-Arg-AMC; for inhibition of proteolytic activity of TMPRSS2 (in words): Tris-HCl buffer
T2 construct: TMPRSS2 (25 nM; recombinant protein produced in mammalian cells; #MBS1193731, MyBioSource, San Diego, CA); purchased MyBioSource, San Diego, CA #MBS1193731; host or cells: mammalian cells
T2 sequence (O15393 256-492 limits assumed): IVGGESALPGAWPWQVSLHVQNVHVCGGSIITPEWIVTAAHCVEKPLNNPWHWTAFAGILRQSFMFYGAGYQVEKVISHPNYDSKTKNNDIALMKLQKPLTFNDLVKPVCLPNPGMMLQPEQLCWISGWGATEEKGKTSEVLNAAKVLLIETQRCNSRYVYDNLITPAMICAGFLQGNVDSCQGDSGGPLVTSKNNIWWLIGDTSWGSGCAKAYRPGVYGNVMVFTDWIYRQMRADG
T2 sequence (O15393 106-255 limits assumed): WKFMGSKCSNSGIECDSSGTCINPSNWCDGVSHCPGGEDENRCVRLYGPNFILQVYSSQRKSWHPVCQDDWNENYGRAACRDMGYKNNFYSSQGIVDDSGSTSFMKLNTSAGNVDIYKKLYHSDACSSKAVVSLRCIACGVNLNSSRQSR
Description: as §1, §2

SARS-CoV-2 = type: cell-based; settings: for SARS-CoV-2 infection of permissive cells (in words): summary statement
[1] = tested on: SARS-CoV-2 infection, Vero cells; type: cell-based, SARS-CoV-2 (African green monkey cells); settings: n = 3
[2] = tested on: SARS-CoV-2 S protein cleavage by TMPRSS2; assay: SARS-CoV-2 S protein digestion assay with TMPRSS2 (immunoblot); type: biochemical; settings: S protein 1 µg, TMPRSS2 25 nM, 120 min, 37°C, Tris-HCl 20 mM pH 7.5, 150 mM NaCl, n = 4
elastase = assay: In vitro proteolysis assay, elastase; type: biochemical, porcine; settings: elastase 20 nM; 37°C, Tris-HCl buffer, Boc-Gln-Ala-Arg-AMC
Description: as §1
as §2, with “The proteases were incubated with or without inhibitory and control compounds at 37°C for 30 min, and then the fluorogenic substrate (Boc-Gln-Ala-Arg-AMC; 25 µM; #BML-P237, ENZO Life Sciences, Lörrach, Germany) was added.” left out

In the case of `C[S+](C)[O-]` [30% DMSO], the “cytotoxicity, Vero cells (in words)” value (Vero cells) is reported as “significantly (p***<0.0005) affected viability of Vero cells”.

For `CC(C)[C@H](NC(=O)[C@H](C)NC(=O)[C@H](CS)NC(=O)[C@H](Cc1c[nH]c2ccccc12)NC(=O)[C@H](CCC(N)=O)NC(=O)[C@@H](NC(=O)[C@H](CO)NC(=O)[C@H](CCCNC(=N)N)NC(=O)[C@H](CCCNC(=N)N)NC(=O)[C@H](CCCNC(=N)N)NC(=O)CN)C(C)C)C(=O)N[C@@H](CO)C(=O)N[C@@H](CCC(N)=O)C(=O)N1CCC[C@H]1C(=O)N[C@@H](CCC(=O)O)C(=O)N[C@@H](C)C(=O)N[C@H](C(=O)N[C@@H](CCCCN)C(=O)N[C@@H](CS)C(=O)O)[C@@H](C)O` [pLF1] (H-GRRRSVQWCAVSQPEATKC-OH), the IC50 (plasmin; Figure 1B inset: plasmin 10 mU/mL coated in PBS, chromogenic substrate S-2251 0.8 mM, PBS, absorbance 405 nm, relative IC50, 4PL fit, experiments at least three times, read-out: half-maximum inhibitory concentration (IC50), plasmin (converted)) was 3.19 µM and the “maximum inhibition of TMPRSS2 (plateau)” value (TMPRSS2; at 40 - 80 µg/mL) was ~ 40%.

For “GRRRRSVQWCAVSQPEATKCFQWQRNMRKVRGPPVSCIKRDSPIQCIQA [LFC, natural peptide of 49 amino acids from the N-terminus of human LF, produced by pepsin cleavage]”, the “inhibition of SARS-CoV-2 infection in Vero and Calu-3 cells” value (SARS-CoV-2; Vero and Calu-3 cells, summary statement in Discussion) was 40-50%, the “SARS-CoV-2 infection of permissive cells (in words)” value (SARS-CoV-2) was “inhibits cell entry of SARS-CoV-2 through blocking TMPRSS2-mediated virus priming” and the “SARS-CoV-2 infection of permissive cells (in words)” value (SARS-CoV-2; listed as lactoferricin) was “significantly inhibited”. For the same molecule, the “inhibition of proteolytic activity of TMPRSS2 (in words)” value (from here on “inhibition … of TMPRSS2 (in words)”) (TMPRSS2) was “inhibitory effect on TMPRSS2 comparable to that of pLF1”, the “inhibition … of TMPRSS2 (in words)” value (TMPRSS2; listed as lactoferricin) was “significantly inhibited” and the “infection rate of replication-competent SARS-CoV-2 in Vero cells (in words)” value ([1]; 80 µg/mL, pre-incubation approx. 1 h) was “reduced the infection rate”.

“NFRTKSCPLELAKELKLCS [pCTR, negative control peptide, a scrambled variant of pLF3, reference compound]” was tested, and the “cleavage of SARS-CoV-2 S protein by TMPRSS2 (in words)” value [2] was “no such effect was seen”, the “inhibition of proteolytic activity of plasmin (in words)” value (plasmin) was “neither full-length LF nor a control peptide (pCTR), was able to inhibit; also recorded: neither full-length LF nor other tested peptides derived from LF, nor the control peptide pCTR, significantly reduced” and the “inhibition of proteolytic activity of elastase (in words)” value (elastase) was “neither full-length LF nor other tested peptides derived from LF, nor the control peptide pCTR, significantly reduced”. The “inhibition … of TMPRSS2 (in words)” value (TMPRSS2) was “neither full-length LF nor pCTR inhibited; also recorded: neither full-length LF nor other tested peptides derived from LF, nor the control peptide pCTR, significantly reduced” and the “inhibition of SARS-CoV-2 infection, Vero cells (in words)” value ([1]; pre-incubation 40-60 min) was “did not show any inhibitory potential”.

For aprotinin [reference compound], the “inhibition of proteolytic activity of plasmin (in words)” value (plasmin) was “blunted the proteolytic activity of both proteases” and the “inhibition … of TMPRSS2 (in words)” value (TMPRSS2) was “blunted the proteolytic activity of both proteases”.
